IC50 data for 33 molecules are collected here from patent US20070123546A1, “2-amino-7,8-dihydro-6H-pyrido[4,3-d]pyrimidin-5-ones” (Chiron Corporation, priority 2005, published 2007).

Structures are written as SMILES.

The target of the assay is His-tagged N-terminal ATP binding domain (amino acid residues 9-236) of HSP90α (Homo sapiens, UniProt P07900). Description: HSP90 inhibitor binding potency: TRF competition binding assay. Conditions: competition with biotinylated radicicol. As for the experimental part:
HSP90 Inhibitor Binding Potency: TRF Binding Assay
In this example, the binding potency of HSP90 inhibitors as measured by a TRF binding assay is described.
TRF competition binding assays were performed to determine the binding potency (IC50 values) of HSP90 inhibitors. Purified His-tagged N-terminal ATP binding domain (amino acid residues 9-236) of HSP90α (HSP90α GeneID: 3320; mRNA Sequence NM_005348) was incubated for two hours at room temperature in binding buffer (50 mM HEPES, 6 mM MgCl2, 20 mM KCl and 0.1% BSA) with biotinylated radicicol and progressively higher concentrations of the competing compounds. A fraction of the mixture was transferred to capture plates (coated with streptavidin) and incubated for one hour at room temperature. After washing with DELFIA wash buffer, europium-labeled anti-his antibody was added and incubated for two hours at room temperature, followed by washing with DELFIA buffer. DELFIA enhancement solution was then added. After gentle shaking for 10 minutes, the plates were read in VICTOR for europium counts.

What is called IC50 is the concentration that inhibits the measured activity by half. A high value points to lower potency. Under “Table 1”, `COc1cccc(-c2cc(F)ccc2C2Cc3nc(N)nc(C)c3C(=O)N2)c1` (stereo not drawn) [Compound 26, 2-Amino-7-(5-fluoro-3′-methoxy-biphenyl-2-yl)-4-methyl-7,8-dihydro-6H-pyrido[4,3-d]pyrimidin-5-one] returned an IC50 below 10 µM.

With `COc1cccc(-c2cc(F)ccc2[C@H]2Cc3nc(N)nc(C)c3C(=O)N2CCCN)n1` [Compound 27, (R)-2-Amino-6-(3-amino-propyl)-7-[4-fluoro-2-(6-methoxy-pyridin-2-yl)-phenyl]-4-methyl-7,8-dihydro-6H-pyrido[4,3-d]pyrimidin-5-one], for the setting “Table 1”, the IC50 is below 10 µM. For `Cc1nc(N)nc2c1C(=O)NC(c1ccc(F)cc1-c1cccnc1)C2` (stereo not drawn) [Compound 28, 2-Amino-7-(4-fluoro-2-pyridin-3-yl-phenyl)-4-methyl-7,8-dihydro-6H-pyrido[4,3-d]pyrimidin-5-one], the IC50 (Table 1) was below 10 µM. For `Cc1ccc(-c2cc(F)ccc2C2Cc3nc(N)nc(C)c3C(=O)N2)c(F)c1` (stereo not drawn) [Compound 29, 2-Amino-7-(5,2′-difluoro-4′-methyl-biphenyl-2-yl)-4-methyl-7,8-dihydro-6H-pyrido[4,3-d]pyrimidin-5-one], the IC50 (Table 1) was below 10 µM. For the setting “Table 1”, `Cc1nc(N)nc2c1C(=O)NC(c1ccc(F)cc1-c1cnn(C)c1)C2` (stereo not drawn) [Compound 30, 2-Amino-7-[4-fluoro-2-(1-methyl-1H-pyrazol-4-yl)-phenyl]-4-methyl-7,8-dihydro-6H-pyrido[4,3-d]pyrimidin-5-one] had an IC50 below 10 µM. Still for that read-out and setting: the value for `Cc1nc(N)nc2c1C(=O)NC(c1ccc(F)cc1-c1cn[nH]c1)C2` (stereo not drawn) [Compound 31, 2-Amino-7-[4-fluoro-2-(1H-pyrazol-4-yl)-phenyl]-4-methyl-7,8-dihydro-6H-pyrido[4,3-d]pyrimidin-5-one] was above 10 µM. `Cc1nc(N)nc2c1C(=O)NC(c1ccc(F)cc1-c1cccc(F)c1F)C2` (stereo not drawn) [Compound 32]: the half-maximal inhibitory concentration (IC50) (Table 1) is below 10 µM. Same read-out and setting: to `Cc1nc(N)nc2c1C(=O)N(CC(C)(C)N1CCOCC1)C(c1ccc(F)cc1Br)C2` (stereo not drawn) [Compound 33, 2-Amino-7-(2-bromo-4-fluoro-phenyl)-4-methyl-6-(2-methyl-2-morpholin-4-yl-propyl)-7,8-dihydro-6H-pyrido[4,3-d]pyrimidin-5-one] belongs above 10 µM.

In turn, `Cc1nc(N)nc2c1C(=O)NC(c1ccc(F)cc1-c1cccc(N(C)C)c1)C2` (stereo not drawn) [Compound 34, 2-Amino-7-(3′-dimethylamino-5-fluoro-biphenyl-2-yl)-4-methyl-7,8-dihydro-6H-pyrido[4,3-d]pyrimidin-5-one] returned an IC50 (Table 1) above 10 µM. With `COc1ncc(-c2cc(F)ccc2C2Cc3nc(N)nc(C)c3C(=O)N2)c(OC)n1` (stereo not drawn) [Compound 35, 2-Amino-7-[2-(2,4-dimethoxy-pyrimidin-5-yl)-4-fluoro-phenyl]-4-methyl-7,8-dihydro-6H-pyrido[4,3-d]pyrimidin-5-one], the IC50 (Table 1) is above 10 µM. The same measure, in the same setting: the value for `COc1cncc(-c2cc(F)ccc2C2Cc3nc(N)nc(C)c3C(=O)N2)c1` (stereo not drawn) [Compound 36, 2-Amino-7-[4-fluoro-2-(5-methoxy-pyridin-3-yl)-phenyl]-4-methyl-7,8-dihydro-6H-pyrido[4,3-d]pyrimidin-5-one] was below 10 µM; that for `Cc1nc(N)nc2c1C(=O)N(CC(C)(C)N1CCOCC1)C(c1ccc(F)cc1-c1cncnc1)C2` (stereo not drawn) [Compound 37, 2-Amino-7-(4-fluoro-2-pyrimidin-5-yl-phenyl)-4-methyl-6-(2-methyl-2-morpholin-4-yl-propyl)-7,8-dihydro-6H-pyrido[4,3-d]pyrimidin-5-one] was above 10 µM.

`COc1ncccc1-c1cc(F)ccc1C1Cc2nc(N)nc(C)c2C(=O)N1CC(C)(C)N1CCOCC1` (stereo not drawn) [Compound 38, 2-Amino-7-[4-fluoro-2-(2-methoxy-pyridin-3-yl)-phenyl]-4-methyl-6-(2-methyl-2-morpholin-4-yl-propyl)-7,8-dihydro-6H-pyrido[4,3-d]pyrimidin-5-one]: the IC50 (Table 1) is above 10 µM.

As to `COc1cccc(-c2cc(F)ccc2C2Cc3nc(N)nc(C)c3C(=O)N2CC(C)(C)N2CCOCC2)c1` (stereo not drawn) [Compound 39, 2-Amino-7-(5-fluoro-3′-methoxy-biphenyl-2-yl)-4-methyl-6-(2-methyl-2-morpholin-4-yl-propyl)-7,8-dihydro-6H-pyrido[4,3-d]pyrimidin-5-one], the IC50 (Table 1) was above 10 µM.

The molecule `COc1nc(-c2cc(F)ccc2[C@H]2Cc3nc(N)nc(C)c3C(=O)N2)ncc1C` [Compound 40, (R)-2-Amino-7-[4-fluoro-2-(4-methoxy-5-methyl-pyrimidin-2-yl)-phenyl]-4-methyl-7,8-dihydro-6H-pyrido[4,3-d]pyrimidin-5-one] yielded an IC50 (Table 1) below 10 µM. On the same count and under the same terms, to `Cc1nc(N)nc2c1C(=O)NC(c1ccc(F)cc1-c1ccoc1)C2` (stereo not drawn) [Compound 41, 2-Amino-7-(4-fluoro-2-furan-3-yl-phenyl)-4-methyl-7,8-dihydro-6H-pyrido[4,3-d]pyrimidin-5-one] belongs below 10 µM. With `COc1cncc(-c2ccccc2[C@H]2Cc3nc(N)ncc3C(=O)N2)n1` [Compound 42, (R)-2-Amino-7-[2-(6-methoxy-pyrazin-2-yl)-phenyl]-7,8-dihydro-6H-pyrido[4,3-d]pyrimidin-5-one], the IC50 (Table 2) is below 10 µM.

Consider `COc1cccc(-c2ccccc2[C@H]2Cc3nc(N)ncc3C(=O)N2)n1` [Compound 43, (R)-2-Amino-7-[2-(6-methoxy-pyridin-2-yl)-phenyl]-7,8-dihydro-6H-pyrido[4,3-d]pyrimidin-5-one], for which the IC50 (Table 2) is below 10 µM.

`COc1nc(-c2cc(F)ccc2[C@H]2Cc3nc(N)nc(C)c3C(=O)N2)ccc1N` [Compound 44, (R)-2-Amino-7-[2-(5-amino-6-methoxy-pyridin-2-yl)-4-fluoro-phenyl]-4-methyl-7,8-dihydro-6H-pyrido[4,3-d]pyrimidin-5-one] registered an IC50 (Table 2) below 10 µM. Same read-out and setting: to `COc1nc(-c2ccccc2[C@H]2Cc3nc(N)nc(C)c3C(=O)N2)ccc1N` [Compound 45, (R)-2-Amino-7-[2-(5-amino-6-methoxy-pyridin-2-yl)-phenyl]-4-methyl-7,8-dihydro-6H-pyrido[4,3-d]pyrimidin-5-one] belongs below 10 µM; to `COc1nc(-c2cc(F)ccc2[C@H]2Cc3nc(N)ncc3C(=O)N2)ccc1N` [Compound 46, (R)-2-Amino-7-[2-(5-amino-6-methoxy-pyridin-2-y1)-4-fluoro-phenyl]-7,8-dihydro-6H-pyrido[4,3-d]pyrimidin-5-one], below 10 µM; to `CCOc1ccnc(-c2cc(F)ccc2[C@H]2Cc3nc(N)nc(C)c3C(=O)N2)n1` [Compound 47, (R)-2-Amino-7-[2-(4-ethoxy-pyrimidin-2-yl)-4-fluoro-phenyl]-4-methyl-7,8-dihydro-6H-pyrido[4,3-d]pyrimidin-5-one], below 10 µM. The same measure, in the same setting: the value for `COc1ccnc(-c2cc(F)ccc2[C@H]2Cc3nc(N)nc(C)c3C(=O)N2)n1` [Compound 48] was below 10 µM; that for `Cc1nc(N)nc2c1C(=O)N[C@@H](c1ccc(F)cc1-c1nccc(N3CCCC3)n1)C2` [Compound 49] was above 10 µM; that for `Cc1nc(N)nc2c1C(=O)N[C@@H](c1ccc(F)cc1C#N)C2` [Compound 50, 2-((R)-2-Amino-4-methyl-5-oxo-5,6,7,8-tetrahydro-pyrido[4,3-d]pyrimidin-7-yl)-5-fluoro-benzonitrile] was above 10 µM. Under “Table 2”, `COc1cnc(-c2cc(F)ccc2[C@H]2Cc3nc(N)nc(C)c3C(=O)N2)nc1OC` [Compound 51, (R)-2-Amino-7-[2-(4,5-4-methoxy-pyrimidin-2-yl)-4-fluoro-phenyl]-4-methyl-7,8-dihydro-6H-pyrido[4,3-d]pyrimidin-5-one] registered an IC50 below 10 µM. In the case of `COc1nc(-c2cc(F)ccc2[C@H]2Cc3nc(N)nc(C)c3C(=O)N2)ncc1Cl` [Compound 52, (R)-2-Amino-7-[2-(5-chloro-4-methoxy-pyrimidin-2-yl)-4-fluoro-phenyl]-4-methyl-7,8-dihydro-6H-pyrido[4,3-d]pyrimidm-5-one], the IC50 (Table 2) was below 10 µM. Still for that read-out and setting: to `COc1cncc(-c2cc(F)ccc2[C@H]2Cc3nc(N)ncc3C(=O)N2)n1` [Compound 53, (R)-2-Amino-7-[4-fluoro-2-(6-methoxy-pyrazin-2-yl)-phenyl]-7,8-dihydro-6H-pyrido[4,3-d]pyrimidin-5-one] belongs below 10 µM; to `COc1ccccc1-c1cc(F)ccc1[C@H]1Cc2nc(N)ncc2C(=O)N1` [Compound 54, (R)-2-Amino-7-(5-fluoro-2′-methoxy-biphenyl-2-yl)-7,8-dihydro-6H-pyrido[4,3-d]pyrimidin-5-one], below 10 µM; to `COc1ccc(F)cc1-c1cc(F)ccc1[C@H]1Cc2nc(N)ncc2C(=O)N1` [Compound 55, (R)-2-Ammo-7-(5,5′-difluoro-2′-methoxy-biphenyl-2-yl)-7,8-dihydro-6H-pyrido[4,3-d]pyrimidin-5-one], below 10 µM. In turn, `COc1cc(F)ccc1-c1cc(F)ccc1[C@H]1Cc2nc(N)ncc2C(=O)N1` [Compound 56, (R)-2-Amino-7-(5,4′-difluoro-2′-methoxy-biphenyl-2-yl)-7,8-dihydro-6H-pyrido[4,3-d]pyrimidin-5-one] showed an IC50 (Table 2) below 10 µM. In turn, `Cc1cccc(-c2cc(F)ccc2[C@H]2Cc3nc(N)ncc3C(=O)N2)c1` [Compound 58, (R)-2-Amino-7-(5-fluoro-3′-methyl-biphenyl-2-yl)-7,8-dihydro-6H-pyrido[4,3-d]pyrimidin-5-one] showed an IC50 (Table 2) below 10 µM. The same measure, in the same setting: the value for `Cc1ccc(-c2cc(F)ccc2[C@H]2Cc3nc(N)ncc3C(=O)N2)cc1` [Compound 60, (R)-2-Amino-7-(5-fluoro-4′-methyl-biphenyl-2-yl)-7,8-dihydro-6H-pyrido[4,3-d]pyrimidin-5-one] was below 10 µM.
